Reference: patent US9040715B2 (priority 2008, dated 2015)
Converted amounts (≈) assume the structure as drawn.

Assays:
[1] = tested on: Aspergillus fumigatus; assay: Anti-fungal/anti-yeast activity: MIC50 (broth microdilution) and MFC; type: cell-based
Protocol: (§1) Fluconazole, an ergosterol inhibitor, and the beta-1,3-glucan inhibitor micafungin served as controls (See Tables 1-8).
(§2) The minimum inhibitory concentrations resulting in 50% growth inhibition (MIC50) of […] Candida species (C. albicans, C. tropicalis and C. glabrata, C. lusitaniae, C. parapsilosis, and C. apicola) as well as Aspergillus fumigatus to a set of novel synthetic compounds was determined in accordance with the guidelines in CLSI document M27-A2 (Clinical and Laboratory Standards Institute; Wayne, Pa.). The total volume of cells and drug was 100 μL per microtiter well, and each drug was diluted in RPMI to achieve final concentrations of 0.2-100 μg/ml. Uninoculated cultures were used as a reference standard. Stock inoculum suspensions were prepared from 24 hour cultures on YPD (yeast extract/peptone/dextrose) media at 30° C. For MIC determinations, an inoculum of 1.0×10^3 cells of Candidia and 2.0×10^3 cells of Aspergillus per well were used, and cells in diluted drugs were prepared in RPMI-1640 medium. MICs were determined both visually and spectrophotometrically at 24 hours and 48 h at 550 nm using a micro plate reader. The MIC50 endpoint was measured as the lowest drug concentration resulting in a reduction of growth of 50% or more compared with growth of the control.
(§3) The minimum fungicidal concentrations (MFCs) were determined for each drug-isolate-medium combination as follows. After 48 hours of incubation, 100 μL of each drug-isolate-medium combination (2 plates) was subcultured onto YPD plates (100 μL of solution was spread over the YPD plate). […] The plates were then incubated at 30° C. for 48 hours.
(§4) The in vitro fungicidal activities (MFCs) were determined for each drug-isolate-medium combination as follows. After 48 hours of incubation, 10 μL each drug-isolate-medium combination was spotted onto YPD plates (10 μL of each well is spotted sequentially with positive and negative control wells). […] The plates were then incubated at 30° C. for 48 hours.

[2] = tested on: Candida albicans (CAF-2); assay: as above; type: cell-based; details: for MIC: read-out: MIC-50
Protocol: as §1, §2, §3, §4

[3] = tested on: Candida apicola; assay: as above; type: cell-based; details: for Activity (fungicidal/fungistatic) / MIC-50 / Ratio MFC/MIC: Candida apicola; for MFC: Starmerella apicola
Protocol: as §1, §2, §3, §4

[4] = tested on: Candida glabrata; assay: as above; type: cell-based; details: for Activity (fungicidal/fungistatic) / Ratio MFC/MIC: Candida glabrata; for MFC / MIC: Nakaseomyces glabratus; for MIC: read-out: MIC-50
Protocol: as §1, §2, §3, §4

[5] = tested on: Candida lusitaniae; assay: as above; type: cell-based; details: for Activity (fungicidal/fungistatic) / Ratio MFC/MIC: Candida lusitaniae; for MFC / MIC: Clavispora lusitaniae; for MIC: read-out: MIC-50
Protocol: as §1, §2, §3, §4

[6] = tested on: Candida tropicalis; assay: as above; type: cell-based; details: for MIC: read-out: MIC-50
Protocol: as §1, §2, §3, §4

[7] = tested on: Candidia parapsilosis; assay: as above; type: cell-based; details: for Activity (fungicidal/fungistatic) / Ratio MFC/MIC: Candidia parapsilosis; for MIC: read-out: MIC-50
Protocol: as §1, §2, §3, §4

[8] = tested on: Saccharomyces cerevisiae (YPH501); assay: as above; type: cell-based; details: for MFC / MIC: Saccharomyces cerevisiae; for Activity (fungicidal/fungistatic) / Ratio MFC/MIC: Saccharomyces cerevisiae (YPH501); for MIC: read-out: MIC-50
[9] = tested on: Huh7 cells; assay: Neutral red uptake assay (cytotoxicity); type: cell-based, human
From the text: The neutral red uptake assay is a cytotoxicity test that is based on the ability of viable cells to incorporate and bind the supra-vital dye neutral red in the lysosomes. This weakly cationic dye penetrates cell membranes by non-ionic passive diffusion and concentrates in the lysosomes, where it binds by electrostatic hydrophobic bonds to anionic and phosphate groups of the lysosomal matrix. The dye is then extracted from the viable cells using an acidified ethanol solution, and the absorbance of the solubilized dye is read. When the cell dies or the pH gradient is reduced, the dye is not retained and consequently, the amount of retained dye is proportional to the number of viable cells. Most primary cells and cell lines can be used for this method. The HepG2 and Huh7, two human hepatoma cell lines, were used for this study. The cells were seeded in 96-well tissue culture plates and treated for 48 hours with the compounds. The plates were then incubated for 2 hours with a medium containing neutral red. The cells were subsequently washed, the dye was extracted in each well, and the absorbance was read using a spectrophotometer (FIG. 3 and Table 11).

[10] = tested on: Huh7 or HepG2 cell line; assay: MTT assay (cytotoxicity); type: cell-based, human; details: 24 hours and 48 hours
Protocol: The MTT assay is a colorimetric assay that measures the reduction of yellow 3-(4,5-dimethylhiazol-2-yl)-2,5-diphenyl tetrazolium bromide (MTT) by mitochondrial succinate dehydrogenase. The MTT enters the cells and passes into the mitochondria where it is reduced to an insoluble, dark purple, formazan product. The cells are then solubilized with an organic solvent (e.g., isopropanol) and the released, solubilized formazan reagent is measured spectrophotometrically. Since reduction of MTT can only occur in metabolically active cells, the level of activity is a measure of the viability of the cells.
Cells of the Huh7 or HepG2 cell line were seeded in a 96 well plate. The plate was incubated overnight at 37° C. in a humidified incubator, 5% CO2. The test compounds were added to the plate. Different concentrations of drug were tested in triplicate along with a negative control. The final volume was adjusted to 100 μl per well. The plate was incubated overnight at 37° C. in a humidified incubator, 5% CO2. After 24 hours and 48 hours, MTT reagent (5 mg/ml, 10 μl/100 μl per well of the 96 well plate) was added and incubated at 37° C. for 3 hours. After 3 hours, 100 μl of the DMSO solution was added to each well and the plate was rocked at room temperature for 1 hour. The plate was then read on a plate reader at […].

| SMILES | Activity (fungicidal/fungistatic) [2] | MFC [2] | Ratio MFC/MIC [2] | MIC [2] | Activity (fungicidal/fungistatic) [3] | MIC-50 [3] | Ratio MFC/MIC [3] | MFC [3] | Activity (fungicidal/fungistatic) [4] | Ratio MFC/MIC [4] | MFC [4] | MIC [4] | Activity (fungicidal/fungistatic) [5] | Ratio MFC/MIC [5] | MFC [5] | MIC [5] | Activity (fungicidal/fungistatic) [6] | MFC [6] | Ratio MFC/MIC [6] | MIC [6] | also measured |
| --- | --- | --- | --- | --- | --- | --- | --- | --- | --- | --- | --- | --- | --- | --- | --- | --- | --- | --- | --- | --- | --- |
| COc1ccc(Cc2nnc(Cn3sc4ccccc4c3=O)o2)cc1 [Compound I-3] | fungicidal (An MFC/MIC ratio of less than four indicates that the compound is fungicidal) | 12.5 µg/mL | 1 | 12.5 µg/mL | fungicidal (An MFC/MIC ratio of less than four indicates that the compound is fungicidal) | 6.4 µg/mL | 2 | 12.5 µg/mL | fungicidal (An MFC/MIC ratio of less than four indicates that the compound is fungicidal) | 2 | 50 µg/mL | 25 µg/mL | fungicidal (An MFC/MIC ratio of less than four indicates that the compound is fungicidal) | 2 | 12.5 µg/mL | 6.4 µg/mL | fungicidal (An MFC/MIC ratio of less than four indicates that the compound is fungicidal) | 12.5 µg/mL | 2 | 6.4 µg/mL | Activity (fungicidal/fungistatic) [1]: fungicidal (An MFC/MIC ratio of less than four indicates that the compound is fungicidal); MFC [1]: 12.5 µg/mL; MIC50 [1]: 6.4 µg/mL; Ratio MFC/MIC [1]: 2; MFC [7]: 12.5 µg/mL; Activity (fungicidal/fungistatic) [7]: fungicidal (An MFC/MIC ratio of less than four indicates that the compound is fungicidal); Ratio MFC/MIC [7]: 2; MIC [7]: 6.4 µg/mL; MFC [8]: 12.5 µg/mL (≈ 35.4 µM); Activity (fungicidal/fungistatic) [8]: fungicidal (An MFC/MIC ratio of less than four indicates that the compound is fungicidal); Ratio MFC/MIC [8]: 1; MIC [8]: 12.5 µg/mL (≈ 35.4 µM); Percentage Viability ([9]; 3.3 μg/mL (approx 1X MIC)): >100%; Percentage Viability ([9]; 10 μg/mL (approx 3X MIC)): >100%; Percentage Viability ([9]; 33 μg/mL (approx 10X MIC)): >100%; Percentage Viability ([9]; 100 μg/mL (approx 30X MIC)): >100%; Toxicity to mammalian cell lines (MTT assay) [10]: minimally toxic |
| COc1ccc(CC(=O)NNC(=O)Cn2sc3ccccc3c2=O)cc1 [Compound I-6] | fungicidal (An MFC/MIC ratio of less than four indicates that the compound is fungicidal) | 12.5 µg/mL | 1 | 12.5 µg/mL | fungicidal (An MFC/MIC ratio of less than four indicates that the compound is fungicidal) | 12.5 µg/mL | 1 | 12.5 µg/mL | fungicidal (An MFC/MIC ratio of less than four indicates that the compound is fungicidal) | 1 | 12.5 µg/mL | 12.5 µg/mL | fungicidal (An MFC/MIC ratio of less than four indicates that the compound is fungicidal) | 1 | 12.5 µg/mL | 12.5 µg/mL | fungicidal (An MFC/MIC ratio of less than four indicates that the compound is fungicidal) | 12.5 µg/mL | 1 | 12.5 µg/mL | MFC [7]: 12.5 µg/mL; Activity (fungicidal/fungistatic) [7]: fungicidal (An MFC/MIC ratio of less than four indicates that the compound is fungicidal); Ratio MFC/MIC [7]: 1; MIC [7]: 12.5 µg/mL; MFC [8]: 12.5 µg/mL (≈ 33.7 µM); Activity (fungicidal/fungistatic) [8]: fungicidal (An MFC/MIC ratio of less than four indicates that the compound is fungicidal); Ratio MFC/MIC [8]: 1; MIC [8]: 12.5 µg/mL (≈ 33.7 µM); Percentage Viability ([9]; 3.3 μg/mL (approx 1X MIC)): >100%; Percentage Viability ([9]; 10 μg/mL (approx 3X MIC)): >100%; Percentage Viability ([9]; 33 μg/mL (approx 10X MIC)): >100%; Percentage Viability ([9]; 100 μg/mL (approx 30X MIC)): 67%; Toxicity to mammalian cell lines (MTT assay) [10]: minimally toxic |
| CC(=O)NNC(=O)Cn1sc2ccccc2c1=O [Compound I-7] | fungicidal (An MFC/MIC ratio of less than four indicates that the compound is fungicidal) | 6.4 µg/mL | 1 | 6.4 µg/mL | fungicidal (An MFC/MIC ratio of less than four indicates that the compound is fungicidal) | 12.5 µg/mL | 1 | 12.5 µg/mL | fungicidal (An MFC/MIC ratio of less than four indicates that the compound is fungicidal) | 2 | 50 µg/mL | 25 µg/mL | fungicidal (An MFC/MIC ratio of less than four indicates that the compound is fungicidal) | 1 | 12.5 µg/mL | 12.5 µg/mL | fungicidal (An MFC/MIC ratio of less than four indicates that the compound is fungicidal) | 12.5 µg/mL | 1 | 12.5 µg/mL | MFC [7]: 12.5 µg/mL; Activity (fungicidal/fungistatic) [7]: fungicidal (An MFC/MIC ratio of less than four indicates that the compound is fungicidal); Ratio MFC/MIC [7]: 1; MIC [7]: 12.5 µg/mL; MFC [8]: 12.5 µg/mL (≈ 47.1 µM); Activity (fungicidal/fungistatic) [8]: fungicidal (An MFC/MIC ratio of less than four indicates that the compound is fungicidal); Ratio MFC/MIC [8]: 1; MIC [8]: 12.5 µg/mL (≈ 47.1 µM); Percentage Viability ([9]; 3.3 μg/mL (approx 1X MIC)): >100%; Percentage Viability ([9]; 10 μg/mL (approx 3X MIC)): >100%; Percentage Viability ([9]; 33 μg/mL (approx 10X MIC)): >100%; Percentage Viability ([9]; 100 μg/mL (approx 30X MIC)): >100%; Toxicity to mammalian cell lines (MTT assay) [10]: minimally toxic |
